This passage reports IC50 and EC50 results from US20240279207A1, “SUBSTITUTED ACYL SULFONAMIDES FOR TREATING CANCER” (The Broad Institute, Inc., priority 2020, published 2024).

The target of assay [1] is T1, Recombinant human His-tagged Kat6a protein (amino acids 194-810) (Homo sapiens, UniProt Q92794).
T1 construct: Kat6a protein (amino acids 194-810); His
In words: Kat6a activity assay (TR-FRET, acetylation of Histone-H4-derived peptide). It counts as biochemical. As to conditions: 60 mins at 22° C., 220 nM H4 peptide, 600 nM Acetyl Coenzyme A, read-out: KAT6A - DPF/HAT domain IC50 [mol/l] (arithmetic mean).

For assay [2], the target named is T2, Recombinant human GST-tagged Kat6b protein (431-end) (Homo sapiens, UniProt Q8WYB5).
T2 construct: Kat6b protein (431-end, N-terminal GST-tag); GST (N)
In words: Kat6b activity assay (TR-FRET, acetylation of Histone-H4-derived peptide). It counts as biochemical. The settings on record: 30 mins at 22° C., 500 nM H4 peptide, 600 nM Acetyl Coenzyme A, read-out: KAT6B activity assay IC50 [mol/l] (arithmetic mean). The procedure: Kat6b inhibitory activities of the compounds described in the present invention were quantified using a Fluorescence Resonance Energy Transfer (TR-FRET) assay which measures acetylation of a synthetic, biotinylated Histone-H4-derived peptide by the enzyme.
In this case 50 nl DMSO were used instead of compounds. […] IC50 values were determined by regression analysis based on a 4 parameter equation (minimum, maximum, ICM, Hill; Y=Max+(Min−Max)/(1+(X/ICso) Hill) using the Screener Software (Genedata).
In general terms: TR-FRET usually uses a lanthanide donor and a delayed reading to cut background.

Assay [3] concerns ESR1 transcription in MVLN cells. In words: MVLN reporter assay: repression of ESR1 transcription (luciferase signal). It counts as cell-based. The settings on record: luciferase signal after 24 h, read-out: MVLN reporter assay, IC50 [M] (arithmetic mean). The essentials:
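MVLN cells, expressing ER and stably carrying a vitellogenin A2 ERE-luciferase reporter, treated with compound in duplicate; luciferase read after 24 h with Steadylite plus. Cell density checked in parallel by Alamar Blue fluorescence (530/590 nm, 2 h) before the luciferase read.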
(Reporter assays use an easily measured gene product as a stand-in for the process of interest.)

The next assay relates to ZR-75-1 cells. Description: ZR-75-1 proliferation assay. The format is cell-based. As to conditions: Alamar Blue, read-out: ZR75-1 proliferation assay, EC50 [M] (arithmetic mean). The method, boiled down:
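ZR-75-1 cells (focal KAT6A amplification), 3000 per well in RPMI 1640 with 2.5% FBS, were exposed to compound in triplicate for 144 h at 37 °C, 5% CO2. Viability read by Alamar Blue fluorescence at 590 nm after 2 h.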
On the technique in general: The colour change of resazurin is a common sign of viable cells or microbes.

In another assay the test system is LCLC97TM1. In words: LCLC97TM1 proliferation assay. It counts as cell-based. As to conditions: read-out: LCLC97TM1 proliferation assay, EC50 [M] (arithmetic mean).
Another assay has as its system MDA-MB-436 cells. Description: MDA-MB-436 proliferation assay (negative control cell line). The format is cell-based. The settings on record: 144 h, Alamar Blue, read-out: MDA-MB-436 proliferation assay, EC50 [M] (arithmetic mean). The essentials:
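MDA-MB-436 cells (KAT6A deletion, low KAT6A protein) seeded at 3000 cells/well in DMEM/Ham's F12 with 2.5% FBS, treated in triplicate for 144 h at 37° C, 5% CO2. Viability read by Alamar Blue fluorescence at 590 nm after 2 h.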

[4] abbreviates: Homo sapiens, LCLC-97TM1, LCLC97TM1.

Like-named read-outs stand apart in the source and are kept apart here.

T1 sequence (Q92794 194-810): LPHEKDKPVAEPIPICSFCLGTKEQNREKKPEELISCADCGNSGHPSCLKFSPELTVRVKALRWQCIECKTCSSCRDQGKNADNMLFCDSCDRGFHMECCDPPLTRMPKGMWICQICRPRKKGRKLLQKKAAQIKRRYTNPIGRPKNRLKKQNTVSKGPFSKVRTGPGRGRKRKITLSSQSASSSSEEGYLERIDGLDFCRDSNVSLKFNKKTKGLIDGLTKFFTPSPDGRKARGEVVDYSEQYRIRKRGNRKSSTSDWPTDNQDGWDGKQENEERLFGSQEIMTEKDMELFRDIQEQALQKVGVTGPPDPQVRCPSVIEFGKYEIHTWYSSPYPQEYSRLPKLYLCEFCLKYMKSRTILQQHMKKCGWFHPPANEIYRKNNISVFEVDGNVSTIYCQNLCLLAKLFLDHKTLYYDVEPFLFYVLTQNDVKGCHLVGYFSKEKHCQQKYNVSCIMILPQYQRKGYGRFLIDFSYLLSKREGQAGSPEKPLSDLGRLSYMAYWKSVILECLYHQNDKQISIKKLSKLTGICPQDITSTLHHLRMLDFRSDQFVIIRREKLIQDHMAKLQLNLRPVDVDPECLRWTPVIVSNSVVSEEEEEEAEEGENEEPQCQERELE
T2 sequence (Q8WYB5 431-2073): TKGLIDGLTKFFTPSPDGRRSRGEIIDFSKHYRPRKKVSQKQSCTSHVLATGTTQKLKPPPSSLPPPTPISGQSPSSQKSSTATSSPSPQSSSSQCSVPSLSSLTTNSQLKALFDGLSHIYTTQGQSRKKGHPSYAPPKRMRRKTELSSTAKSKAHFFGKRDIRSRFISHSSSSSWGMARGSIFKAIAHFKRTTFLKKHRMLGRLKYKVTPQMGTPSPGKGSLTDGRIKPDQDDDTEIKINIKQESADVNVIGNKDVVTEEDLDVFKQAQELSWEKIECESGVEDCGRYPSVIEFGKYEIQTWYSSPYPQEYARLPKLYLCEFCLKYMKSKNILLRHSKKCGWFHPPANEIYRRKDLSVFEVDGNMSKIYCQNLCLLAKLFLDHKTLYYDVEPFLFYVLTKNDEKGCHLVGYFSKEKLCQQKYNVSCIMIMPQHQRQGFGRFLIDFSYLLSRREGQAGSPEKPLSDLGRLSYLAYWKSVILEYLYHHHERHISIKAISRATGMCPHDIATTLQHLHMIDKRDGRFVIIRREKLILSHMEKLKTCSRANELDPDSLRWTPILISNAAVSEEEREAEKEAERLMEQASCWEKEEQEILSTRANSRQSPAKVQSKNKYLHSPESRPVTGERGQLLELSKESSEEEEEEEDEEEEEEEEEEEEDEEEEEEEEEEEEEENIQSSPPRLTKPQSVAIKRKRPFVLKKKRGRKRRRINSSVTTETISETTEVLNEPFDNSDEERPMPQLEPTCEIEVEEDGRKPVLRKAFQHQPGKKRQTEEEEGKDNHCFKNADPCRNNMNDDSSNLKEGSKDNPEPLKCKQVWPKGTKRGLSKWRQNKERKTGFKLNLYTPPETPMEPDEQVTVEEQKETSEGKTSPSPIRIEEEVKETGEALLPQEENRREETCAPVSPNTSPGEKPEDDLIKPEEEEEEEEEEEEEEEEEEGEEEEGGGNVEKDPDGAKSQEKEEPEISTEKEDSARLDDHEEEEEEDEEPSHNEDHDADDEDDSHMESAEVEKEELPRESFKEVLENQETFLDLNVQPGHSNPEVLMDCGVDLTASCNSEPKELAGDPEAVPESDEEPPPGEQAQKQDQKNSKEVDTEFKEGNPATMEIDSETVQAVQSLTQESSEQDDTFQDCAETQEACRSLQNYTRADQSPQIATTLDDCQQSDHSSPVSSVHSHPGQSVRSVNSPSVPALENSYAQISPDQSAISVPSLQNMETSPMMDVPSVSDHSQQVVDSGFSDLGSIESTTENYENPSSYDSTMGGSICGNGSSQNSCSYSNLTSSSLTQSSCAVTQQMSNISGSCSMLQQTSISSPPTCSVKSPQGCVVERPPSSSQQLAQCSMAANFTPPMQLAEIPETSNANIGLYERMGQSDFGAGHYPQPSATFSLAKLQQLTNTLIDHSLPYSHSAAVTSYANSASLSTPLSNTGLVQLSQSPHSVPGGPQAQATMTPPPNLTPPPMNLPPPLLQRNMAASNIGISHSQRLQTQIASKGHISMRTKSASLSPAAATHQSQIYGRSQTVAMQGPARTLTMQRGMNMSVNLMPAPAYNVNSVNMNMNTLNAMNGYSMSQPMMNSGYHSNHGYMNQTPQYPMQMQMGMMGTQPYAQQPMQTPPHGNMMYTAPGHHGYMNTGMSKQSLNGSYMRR

On to `CCOc1ccccc1S(=O)(=O)NC(=O)c1cc2c(F)cc(N3CCC3)cc2o1` [Example 126, Sodium [6-(azetidin-1-yl)-4-fluoro-1-benzofuran-2-carbonyl](2-ethoxybenzene-1-sulfonyl)azanide], for which the results for the IC50 in assay [1], in assay [2] and in assay [3] were 56.5 nM, 285 nM and 9.43e-08 M, respectively. Besides, the EC50 is 3.07e-07 M in the assay with ZR-75-1 cells (144 h), 1.12e-06 M in the assay with LCLC97TM1 (LCLC97TM1) and more than 2e-05 M in the assay on MDA-MB-436 cells.

Regarding `CC(C)(C)c1ccc(OC2CC2)c(S(=O)(=O)NC(=O)c2cc3c(F)cc(N4CCC4)cc3o2)c1` [Example 224, 6-(Azetidin-1-yl)-N-[(5-(tert-butyl)-2-cyclopropoxyphenyl)sulfonyl]-4-fluorobenzofuran-2-carboxamide], the IC50 in assay [1] is 3.72 nM; in assay [2], 9.82 nM; in assay [3] (Homo sapiens, MVLN, 24 h), 2.76e-08 M. The EC50 came to 7.5e-08 M with ZR-75-1 cells (Homo sapiens, ZR-75-1, 144 h); 1.14e-07 M in the assay on LCLC97TM1 (setting [4]); 1.77e-05 M in the assay with MDA-MB-436 cells (Homo sapiens).

Take `CCOc1ccc(C(C)C)cc1S(=O)(=O)NC(=O)c1cc2c(F)cc(N3CCC3)cc2o1` [Example 128, 6-(Azetidin-1-yl)-N-[2-ethoxy-5-(propan-2-yl)benzene-1-sulfonyl]-4-fluoro-1-benzofuran-2-carboxamide]: the IC50 in assay [1] was 8.15 nM; in assay [2] it was 15.1 nM; in assay [3] (Homo sapiens, MVLN, 24 h) it was 1.9e-08 M. The EC50 in the assay with ZR-75-1 cells (Homo sapiens, ZR-75-1, 144 h) was 6.73e-08 M; in the assay on LCLC97TM1 (setting [4]) it was 2.2e-07 M; with MDA-MB-436 cells (Homo sapiens), more than 2e-05 M.

On to `COc1ccc(C(C)(C)C)cc1S(=O)(=O)NC(=O)c1cc2c(F)cc(N3CC(F)C3)cc2o1` [Example 150, N-(5-tert-butyl-2-methoxybenzene-1-sulfonyl)-4-fluoro-6-(3-fluoroazetidin-1-yl)-1-benzofuran-2-carboxamide], for which the IC50 was 4.25 nM in assay [1]; 9.78 nM in assay [2]; 5.97e-09 M in assay [3] (Homo sapiens, MVLN, 24 h). Also, the EC50 in the assay with ZR-75-1 cells (Homo sapiens, ZR-75-1, 144 h) is 5.78e-08 M; with LCLC97TM1 (setting [4]) it was 4.58e-08 M; in the assay on MDA-MB-436 cells (Homo sapiens), more than 2e-05 M.

With `CCOc1ccc(C(C)C)cc1S(=O)(=O)NC(=O)c1cc2c(F)cc(N3CC(F)C3)cc2o1` [Example 151, N-[2-ethoxy-5-(propan-2-yl)benzene-1-sulfonyl]-4-fluoro-6-(3-fluoroazetidin-1-yl)-1-benzofuran-2-carboxamide], the IC50 worked out at 5.81 nM in assay [1]; 13.7 nM in assay [2]; 1.55e-08 M in assay [3] (Homo sapiens, MVLN, 24 h). The EC50 was 5.67e-08 M in the assay on ZR-75-1 cells (Homo sapiens, ZR-75-1, 144 h); 6.63e-08 M in the assay with LCLC97TM1 (setting [4]); more than 2e-05 M with MDA-MB-436 cells (Homo sapiens).

On to `CC(C)Oc1ccc(C(C)(C)C)cc1S(=O)(=O)NC(=O)c1cc2c(F)cc(N3CCC3)cc2o1` [Example 229, 6-(Azetidin-1-yl)-N-[(5-(tert-butyl)-2-isopropoxyphenyl)sulfonyl]-4-fluorobenzofuran-2-carboxamide], for which the IC50 in assay [1] was found to be 4.79 nM; in assay [2] it was 27.6 nM; in assay [3] (Homo sapiens, MVLN, 24 h), 3.83e-08 M. Besides, the EC50 in the assay with ZR-75-1 cells (Homo sapiens, ZR-75-1, 144 h) was 2.18e-07 M; in the assay on LCLC97TM1 (setting [4]) it was 1.8e-07 M; in the assay with MDA-MB-436 cells (Homo sapiens) it was more than 2e-05 M.

Take `O=C(NS(=O)(=O)c1ccccc1-c1ccccc1)c1cc2ccc(N3CCC3)cc2o1` [Example 26, 6-(Azetidin-1-yl)-N-([1,1′-biphenyl]-2-sulfonyl)-1-benzofuran-2-carboxamide]: the IC50 in assay [1] is 145 nM; in assay [2], 292 nM; in assay [3] (Homo sapiens, MVLN, 24 h) it was 3.85e-07 M. The EC50 in the assay on ZR-75-1 cells (Homo sapiens, ZR-75-1, 144 h) was 5.06e-07 M; with LCLC97TM1 (setting [4]) it was 3.9e-06 M; with MDA-MB-436 cells (Homo sapiens) it was more than 2e-05 M.

As to `Cc1ccc2cccc(S(=O)(=O)NC(=O)c3cc4c(F)cc(N5CCC5)cc4o3)c2n1` [Example 130, 6-(Azetidin-1-yl)-4-fluoro-N-(2-methylquinoline-8-sulfonyl)-1-benzofuran-2-carboxamide], the IC50 came to 13.7 nM in assay [1]; 19.6 nM in assay [2]; 3.23e-08 M in assay [3] (Homo sapiens, MVLN, 24 h). The EC50 was 8.86e-08 M in the assay on ZR-75-1 cells (Homo sapiens, ZR-75-1, 144 h); 2.36e-07 M in the assay on LCLC97TM1 (setting [4]); more than 2e-05 M in the assay with MDA-MB-436 cells (Homo sapiens).

For `CC(C)(C)c1ccc(OC2CCC2)c(S(=O)(=O)NC(=O)c2cc3c(F)cc(N4CCC4)cc3o2)c1` [Example 228, 6-(Azetidin-1-yl)-N-[(5-(tert-butyl)-2-cyclobutoxyphenyl)sulfonyl]-4-fluorobenzofuran-2-carboxamide], the IC50 in assay [1] was 2.57 nM; in assay [2], 13.4 nM; in assay [3] (Homo sapiens, MVLN, 24 h), 2.39e-08 M. Moreover, the EC50 with ZR-75-1 cells (Homo sapiens, ZR-75-1, 144 h) was 1.16e-07 M; in the assay with LCLC97TM1 (setting [4]), 1.67e-07 M; in the assay with MDA-MB-436 cells (Homo sapiens) it was more than 2e-05 M.
